Experimental data from patent publication US11617814B2, “Methods of treatment comprising administering polymer particles configured for intravascular delivery of pharmaceutical agents” (TERUMO CORPORATION, priority 2016, dated 2023).

Columns and labels:
[1] = In vivo elution: systemic concentration of oxaliplatin in plasma after embolization, LC/MS/MS; parameters: species or system pig
Method: (§1) Blood samples were obtained to determine the systemic concentration of oxaliplatin before embolization as well as 20, 40, 60, 120 and 180 minutes post-embolization. An additional blood sample was collected at sacrifice, which was at day 6 or day 7. Plasma was prepared by centrifugation and the samples were frozen at −80° C. until analysis.
Quantitation was done via LC/MS/MS using an Agilent 1260 Infinity HPLC system coupled with ABSciex 4000 Q Trap LC/MS/MS system. Chromatographic separation was performed using an Agilent Poroshell 120 C18 column (4.6 mm×50 mm, 2.7 μm) at 50° C. and mobile phase consisting of A: 0.1% formic acid in acetonitrile and B: 0.1% formic acid in water. At a flow rate of 500 μL/min, the chromatographic gradient was 0% buffer A from 0.0-2.5 min, 0-90% from 2.5-2.6 min, 90% from 2.6-4.1 min, 90-0% from 4.1-4.2 min, and 0% from 4.2-10.0 min. The divert valve was open from 1.4-2.7 min and 3.4-4.6 min. The plasma samples were purified by ultracentrifugation first and then solid phase extraction. Plasma sample, 500 μL, was loaded onto a 30K Nanosep Centrifuge Device and centrifuged to collect the plasma ultra-filtrate. The centrifugation was performed at 4° C., starting at 8,000 rcf for 30 mins, 9,000 rcf for 30 mins, and 10,000 rcf for 15 mins with an increment of 1,000 rcf every 15 mins until 13,000 rcf for 2 hrs and 15 mins. The collected plasma ultra-filtrate was diluted with 1:1 (v/v) ratio of acetonitrile containing 500 ppb of the internal standard, carboplatin. The mixture, 600 μL, was loaded onto a 1 mL HybridSPE-Phospholipid cartridge, which was placed in a 15 mL conical centrifuge tube and centrifuged at 4° C. at 1,000 rcf for 5 mins and then 4,000 rcf for 5 mins. The sample collected in the centrifuge tube was then transferred to an HPLC vial for analysis. Injection of 50 μL of the sample was performed. The calibration curve was prepared by spiking the blank plasma ultra-filtrate to a range from 5-2000 ppb. The systemic concentration of oxalipatin in plasma over time is illustrated in FIG. 3.

[2] = In vivo elution: systemic concentration of SN-38 in plasma after embolization, LC/MS/MS
Method: as §1, with “SN-38” for “oxaliplatin”, “6.” for “6 or day 7.”
Quantitation was done via liquid chromatography-tandem mass spectrometry (LC/MS/MS) using an Agilent 1260 Infinity HPLC system coupled with ABSciex 4000 Q Trap LC/MS/MS system. Chromatographic separation was performed using an Agilent Poroshell 120 C18 column (4.6 mm×50 mm, 2.7 μm) at 25° C. and mobile phases consisting of A: 0.1% formic acid in acetonitrile and B: 0.1% formic acid in water. At a flow rate of 1.0 mL/min, the chromatographic gradient was 27% buffer A from 0.0-0.3 min, 27-52% from 0.3-2.5 min, 52-80% from 2.5-2.6 min, 80% from 2.6-2.7 min, 80-27% from 2.7-2.8 min, 27% from 2.9-4.0 min. The plasma samples were precipitated with 3 fold excess (v/v) of acetonitrile containing 50 ppb of the internal standard, camptothecin. After being vortexed and centrifuged at 13,000 rpm at 4° C. for 10 minutes, 200 μL of the supernatant of each sample was diluted with 600 μL of 0.1% formic acid in water. Injection of 100 μL of the diluted sample was performed. The calibration curve was prepared by spiking blank plasma to a range from 2.5-500 ppb for SN-38. […]

[3] = Solubility of SN-38 in water, observed in the elution extract; format: physicochemical; conditions: yellow precipitate formed in the extract solution
Method: The kinetics of SN-38 elution from the preloaded particles is illustrated in FIG. 1. The theoretical amount of SN-38 tethered on the particles is 15 mg for 100 mg of particles assuming no loss of the drug during the preparation of the particles. Upon immersion in PBS, SN-38 was eluted slowly over a period of time. On day 8, there was approximately 3% of SN-38 eluted. The elution curve obtained is fairly close to a linear line over the period of 8 days with a steady daily release between 3-5% of loaded SN-38 indicating controlled release of SN-38 is achieved with the preloaded particles. The total amount of SN-38 eluted during the first 8 days was 34% of the theoretical amount.

SMILES: O=C1[O][Pt]2([NH][C@@H]3CCCC[C@H]3[NH]2)[O]C1=O [oxaliplatin]
- systemic concentration of oxaliplatin in plasma ([1]; each time point: pre-embolization, 20, 40, 60, 120, 180 min post-embolization and day 6 or 7, plasma ultra-filtrate, calibration 5-2000 ppb): lower than the lower limit of quantitation
- systemic concentration of oxaliplatin at day 6 ([1]; one sample pig, day 6): close to pre-embolization
- time of highest systemic concentration of oxaliplatin ([1]; post embolization, one sample pig): 3 h

SMILES: CCc1c2c(nc3ccc(O)cc13)-c1cc3c(c(=O)n1C2)COC(=O)[C@]3(O)CC [SN-38, 7-ethyl-10-hydroxy-camptothecin]
- systemic concentration of SN-38 in plasma ([2]; each time point: pre-embolization, 20, 40, 60, 120, 180 min post-embolization and day 6, calibration 2.5-500 ppb): lower than the lower limit of quantitation
- time of highest systemic concentration of SN-38 ([2]; post embolization, plasma): 3 h
- solubility of SN-38 in water [3]: poor solubility
